Test [1] concerns the target T1, GST-XIAP BIR3RING (Homo sapiens, UniProt P98170).
T1 construct: made in house; host or cells: E. coli DH5-alpha
Put plainly: Fluorescence polarization-based competition assay, XIAP Bir3-RING. The format is binding. A digest of the protocol:
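Competitive fluorescence polarization with GST-XIAP BIR3-RING (aa 246-497, E. coli-expressed) and a fluorescein-labelled peptide probe in 50 mM MES pH 6.5 with BSA; protein fixed at titrated linear-signal level. Compound autofluorescence and quenching checked; IC50 from 10-point dilutions, Ki derived by Nikolovska-Coleska equation.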

In test [2] the target is T2, GST-HIAP2 (cIAP-1) BIR 3 (Homo sapiens, UniProt Q13490).
T2 construct: made in house; host or cells: E. coli DH5-alpha
Put plainly: Fluorescence polarization-based competition assay, cIAP-1 Bir3. It is filed as binding. An outline of the steps: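 GST-cIAP-1 BIR3 (aa 251–363, E. coli) at a titrated fixed level, combined with fluorescein-labelled peptide probe and a 10-point compound series in 50 mM MES pH 6.5 with BSA. Polarization read at ex 485/em 535 nm; IC50 fitted, and Ki derived using the Nikolovska-Coleska equation.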

Test [3] has as its target T3, XIAP Bir2-Bir3-RING (GST-linker BIR2 BIR3RING) (Homo sapiens, UniProt P98170).
T3 construct: made in house; host or cells: E. coli DH5-alpha
Put plainly: Caspase de-repression assay using cellular extracts (apoptosome), XIAP Bir2-Bir3-RING. The format is biochemical. Conditions: 293 cell S100 extract. The protocol:
(§1) 100 ug of 293 cell S100 extract and 0.25 uM-2 uM of GST-Xiap fusion protein (GST-BIR 3RING, GST-linker BIR2 BIR3RING) were co-incubated with serial dilutions of compound (0.02 uM-40 uM). Extracts were activated by adding 1 mM dATP, 0.1 mM ALLN, 133 ug Cytochrome C (final concentrations), and incubating at 37° C. for 25 minutes. All reactions and dilutions used S100 buffer (50 mM Pipes pH 7.0, 50 mM KCl, 0.5 mM EGTA pH 8.0, 2 mM MgCl2 supplemented with 1/1000 dilutions of 2 mg/ml Cytochalisin B, 2, mg/ml Chymotstatin, Leupeptin, Pepstatin, Antipain, 0.1M PMSF, 1M DTT). Final reaction volume was 30 ul. Caspase-3 activity was measured by overlaying 30 ul of a 0.4 mM DEVD-AMC solution. AMC cleavage was measured in a TECAN spectrophotometer at 360 nm excitation and 444 nm emission, on a kinetic cycle of 1 hour with readings taken every 5 minutes. Caspase activity was calculated as Vo of AMC fluorescence/sec. Caspase de-repression by our compounds were compared to fully activated extract and activated extract repressed by the presence of XIAP fusion protein.
(§2) Results: Compounds were also tested in the apoptosome assay and the linker-BIR2/caspase-3 inhibition assay and found to have IC50s in the following ranges: A: >10 μM; B: <10 μM; C: <1 μM, as shown in Table 7.

The target of test [4] is T4, XIAP Bir3-RING (GST-BIR 3RING) (Homo sapiens, UniProt P98170).
T4 construct: made in house; host or cells: E. coli DH5-alpha
Nature of the test: Caspase de-repression assay using cellular extracts (apoptosome), XIAP Bir3-RING. Conditions: 293 cell S100 extract. The format is biochemical. The protocol:
as §1, §2

Test [5] has as its target T5, caspase-3 inhibited by linker BIR2-BIR3-RING of XIAP (Homo sapiens, UniProt P98170).
T5 construct: made in house; host or cells: E. coli DH5-alpha (GST-XIAP); E. coli AD494 (His-caspase-3)
Put plainly: Caspase-3 linker-BIR2-BIR3-RING derepression assay. The format is biochemical. The protocol:
In order to determine the relative activity of the selected compound against BIR2, an in vitro assay was used where caspase-3 was inhibited by linker-BIR2 or linker BIR2-BIR3-RING of XIAP. Briefly, 1.5 ul of the enzyme, 0.25 uM to 2 uM of GST-Xiap fusion protein (GST-linker BIR2, GST-linker BIR2BIR3RING) were co-incubated with serial dilutions of compound (80 uM-0.04 uM). Caspase 3 activity was measured by overlaying 25 ul of a 0.4 mM DEVD-AMC solution. Final reaction volume was 100 ul. All dilutions were performed in caspase buffer (50 mM Hepes pH 7.4, 100 mM NaCl, 10% sucrose, 1 mM EDTA, 10 mM DTT, 0.1% CHAPS (Stennicke, H. R., and Salvesen, G. S. (1997). Biochemical characteristics of caspase-3, -6, -7, and -8. J. Biol. Chem. 272, 25719-25723)).
The fluorescent AMC released from the caspase-3 hydrolysis of the substrate was measured in a TECAN spectrophotometer at 360 nm excitation and 444 nm emission, on a kinetic cycle of 30 minutes with readings taken every 2 minutes. Caspase activity was calculated as Vo of AMC fluorescence/sec. Caspase de-repression by our compounds were compared to caspase-3 alone and caspase 3 repressed by the presence of XIAP fusion protein.
as §2

For test [6], the target named is T6, GST-HIAP1(cIAP-2) BIR 3 (Homo sapiens, UniProt Q13489).
T6 construct: made in house; host or cells: E. coli DH5-alpha
Put plainly: Fluorescence polarization-based competition assay, cIAP-2 Bir3. The format is binding. A digest of the protocol:
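GST-cIAP-2 BIR3 (aa 236-349, E. coli-expressed) at a pre-titrated fixed level, with fluorescein-labelled AVPF-peptide probe and 10-point compound dilutions in 50 mM MES pH 6.5 with BSA. Fluorescence polarization read at Ex 485/Em 535 nm; IC50 from curve fit, Ki derived per Nikolovska-Coleska equation.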

In test [7] the test system is MDA-MB-231 cells. Nature of the test: Survival assay (MTS) on MDA-MB-231 cells. The format is cell-based. The settings on record: Homo sapiens, 72 hours, read-out: EC50 MDA-MB-231 breast derived cell line. The protocol:
MDA-MD-231 (breast) and H460 (lung) cancer cells were cultured in RPMI1640 media supplemented with 10% FBS and 100 units/mL of Penicillin and Steptomycin.
Survival assays were routinely done on MDA-MB-231 and H460 cells. Cells were seeded in 96 well plates at a respective density of 5000 and 2000 cells per well and incubated at 37° C. in presence of 5% CO2 for 24 hours. Selected compounds were diluted into the media at various concentration ranging from 0.01 uM up to 100 uM. Diluted compounds were added onto the MDA-MB-231 cells. For H460 cells, the compounds were added either alone or in presence of 3 ng/ml of TRAIL. After 72 hours cellular viability was evaluated by MTS based assays. A solution of [3-(4,5-dimethylthiazol-2-yl)-5-(3-carboxymethoxyphenyl)-2-(4-sulfophenyl)-2H-tetrazolium, inner salt; MTS] was added onto cells for a period of 1 to 4 hours. Upon incubation the amount of converted MTS was evaluated using a Tecan spectrophotometer set at 570 nm.

T3 sequence (P98170 93-497): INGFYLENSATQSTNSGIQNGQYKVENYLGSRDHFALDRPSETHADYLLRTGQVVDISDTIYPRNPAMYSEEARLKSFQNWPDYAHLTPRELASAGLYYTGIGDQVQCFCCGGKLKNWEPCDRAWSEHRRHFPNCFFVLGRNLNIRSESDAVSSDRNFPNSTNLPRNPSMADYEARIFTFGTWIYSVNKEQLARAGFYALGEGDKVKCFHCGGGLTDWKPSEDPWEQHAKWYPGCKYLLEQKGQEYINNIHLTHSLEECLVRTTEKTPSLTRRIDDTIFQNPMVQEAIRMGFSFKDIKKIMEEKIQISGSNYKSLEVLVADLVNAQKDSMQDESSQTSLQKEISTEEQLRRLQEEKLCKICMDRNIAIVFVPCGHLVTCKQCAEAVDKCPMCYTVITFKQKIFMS
T5 sequence (P98170 93-497): as above
T4 sequence (P98170 246-497): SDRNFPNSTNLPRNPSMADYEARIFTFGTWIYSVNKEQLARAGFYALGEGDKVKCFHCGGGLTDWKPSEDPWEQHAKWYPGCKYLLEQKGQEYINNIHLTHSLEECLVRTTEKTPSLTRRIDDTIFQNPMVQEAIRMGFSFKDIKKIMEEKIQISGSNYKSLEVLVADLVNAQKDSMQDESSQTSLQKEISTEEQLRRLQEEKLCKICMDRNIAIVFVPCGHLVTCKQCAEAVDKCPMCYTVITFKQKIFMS
T1 sequence (P98170 246-497): as above
T6 sequence (Q13489 236-349): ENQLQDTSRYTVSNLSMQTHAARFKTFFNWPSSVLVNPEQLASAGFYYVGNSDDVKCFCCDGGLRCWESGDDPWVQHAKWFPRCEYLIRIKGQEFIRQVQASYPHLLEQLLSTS
T2 sequence (Q13490 251-363): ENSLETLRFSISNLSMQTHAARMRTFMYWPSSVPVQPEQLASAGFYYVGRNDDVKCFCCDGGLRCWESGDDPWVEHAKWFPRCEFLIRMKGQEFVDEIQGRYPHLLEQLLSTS

As for `CC[C@H](N)C(=O)N[C@H](C(=O)N1CCC[C@H]1CN(C(=O)C(F)(F)F)[C@H](C)c1ccccc1)C(C)C` [Compound 13], the IC50 in test [1] was below 10000 nM; in test [2] it was below 10000 nM; in test [3] it was above 10000 nM; in test [4], below 10000 nM; in test [5] it was above 10000 nM; in test [6] it was above 10000 nM.

As for `CC[C@H](N)C(=O)N[C@H](C(=O)N1CCC[C@H]1CNC(=O)Cc1ccccc1)C(C)C` [Compound 14], the half-maximal inhibitory concentration (IC50) in test [1] is above 10000 nM; in test [2] it was above 10000 nM; in test [3] it was above 10000 nM; in test [4] it was below 10000 nM; in test [5] it was above 10000 nM; in test [6], above 10000 nM.

`CC(C)[C@H](NC(=O)[C@H](C)N)C(=O)N1CCC[C@H]1CN(CCc1ccccc1)C(=O)OCc1ccccc1` [Compound 15]: the IC50 in test [1] was below 1000 nM; in test [2], below 1000 nM; in test [3], above 10000 nM; in test [4] it was below 10000 nM; in test [5], above 10000 nM; in test [6], below 1000 nM.

As for `CC(C)[C@H](NC(=O)[C@H](C)N)C(=O)N1CCC[C@H]1CN(CCc1ccccc1)S(C)(=O)=O` [Compound 17], the 50% inhibitory concentration (IC50) in test [1] was below 10000 nM; in test [2] it was below 1000 nM; in test [3], above 10000 nM; in test [4], below 1000 nM; in test [5] it was above 10000 nM; in test [6] it was below 1000 nM.

With `CC(C)[C@H](NC(=O)[C@H](C)N)C(=O)N1CCC[C@H]1CNCCc1ccccc1` [Compound 18], the half-maximal inhibitory concentration (IC50) in test [1] is below 1000 nM; in test [2], below 1000 nM; in test [3] it was above 10000 nM; in test [4], below 1000 nM; in test [5] it was above 10000 nM; in test [6], below 1000 nM.

For `CC(=O)N(CCc1ccccc1)C[C@@H]1CCCN1C(=O)[C@@H](NC(=O)[C@H](C)N)C(C)C` [Compound 19], the IC50 is below 1000 nM in test [1]; below 1000 nM in test [2]; above 10000 nM in test [3]; below 1000 nM in test [4]; above 10000 nM in test [5]; below 1000 nM in test [6].

With `CC(C)[C@H](NC(=O)[C@H](C)N)C(=O)N1CCC[C@H]1CN(CCc1ccccc1)C(=O)C(F)(F)F` [Compound 20], the half-maximal inhibitory concentration (IC50) in test [1] is below 1000 nM; in test [2], below 1000 nM; in test [3] it was above 10000 nM; in test [4], below 1000 nM; in test [5], above 10000 nM; in test [6], below 1000 nM.

In the case of `CC(C)[C@H](NC(=O)[C@H](C)N)C(=O)N1CCC[C@H]1CN(CCc1ccccc1)C(=O)CCc1ccccc1` [Compound 21], the IC50 is below 1000 nM in test [1]; below 1000 nM in test [2]; above 10000 nM in test [3]; below 1000 nM in test [4]; above 10000 nM in test [5]; below 1000 nM in test [6].

Regarding `CCCC(=O)N(CCc1ccccc1)C[C@@H]1CCCN1C(=O)[C@@H](NC(=O)[C@H](C)N)C(C)C` [Compound 22], the 50% inhibitory concentration (IC50) was below 1000 nM in test [1]; below 1000 nM in test [2]; above 10000 nM in test [3]; below 1000 nM in test [4]; above 10000 nM in test [5]; below 1000 nM in test [6].

For `CC(C)[C@H](NC(=O)[C@H](C)N)C(=O)N1CCC[C@H]1CN(CCc1ccccc1)C(=O)Cc1ccccc1` [Compound 23], the IC50 in test [1] was below 1000 nM; in test [2] it was below 1000 nM; in test [3] it was above 10000 nM; in test [4], below 1000 nM; in test [5], above 10000 nM; in test [6], below 1000 nM.

For `CN[C@@H](C)C(=O)N[C@H](C(=O)N1CCC[C@H]1CN(CCc1ccccc1)C(=O)CCc1ccccc1)C(C)(C)C` [Compound 27], the IC50 in test [1] is below 1000 nM; in test [2], below 1000 nM; in test [3], below 10000 nM; in test [4], below 1000 nM; in test [5], above 10000 nM; in test [6] it was below 1000 nM.

Consider `CC(C)[C@H](NC(=O)[C@H](C)N)C(=O)N1CCC[C@H]1CN(CCCCO)CCc1ccccc1` [Compound 29], for which the IC50 in test [1] was below 10000 nM; in test [2], below 1000 nM; in test [3], below 10000 nM; in test [4] it was below 1000 nM; in test [5], above 10000 nM; in test [6], below 1000 nM.

For the compound `CC(C)[C@H](NC(=O)[C@H](C)N)C(=O)N1CCC[C@H]1CN(CCc1ccccc1)C(=O)CN` [Compound 30], the IC50 is below 1000 nM in test [1]; below 1000 nM in test [2]; above 10000 nM in test [3]; below 1000 nM in test [4]; above 10000 nM in test [5]; below 1000 nM in test [6].

For the compound `CC(C)[C@H](NC(=O)[C@H](C)N)C(=O)N1CCC[C@H]1CN(CCc1ccccc1)C(=O)CCCc1ccccc1` [Compound 31], the half-maximal inhibitory concentration (IC50) in test [1] was below 1000 nM; in test [2] it was below 1000 nM; in test [3], above 10000 nM; in test [4] it was below 1000 nM; in test [5], above 10000 nM; in test [6] it was below 1000 nM.

For `CN[C@@H](C)C(=O)N[C@H](C(=O)N1CCC[C@H]1CN(CCc1ccccc1)C(=O)[C@H](N)Cc1ccccc1)C(C)(C)C` [Compound 42], the half-inhibitory concentration (IC50) in test [1], in test [2] and in test [6] was below 1000 nM each time. Moreover, in test [7], the concentration for a half-maximal effect (EC50) was below 5000 nM.

For `CN[C@@H](C)C(=O)N[C@H](C(=O)N1CCC[C@H]1CN(CCc1ccccc1)C(=O)[C@@H](N)Cc1ccccc1)C(C)(C)C` [Compound 44], the concentration for half-maximal inhibition (IC50) in test [1] is below 10000 nM; in test [2], below 1000 nM; in test [6], below 1000 nM. The EC50 in test [7] is below 5000 nM.

On to `CN[C@@H](C)C(=O)N[C@H](C(=O)N1CCC[C@H]1CN(CCc1ccccc1)C(=O)c1ccc(F)cc1)C(C)(C)C` [Compound 75], for which the half-maximal effective concentration (EC50) in test [7] is below 5000 nM.

In the case of `CN[C@@H](C)C(=O)N[C@@H](CCc1ccccc1)C(=O)N1CCC[C@H]1CN(CCc1ccccc1)C(=O)[C@H](N)Cc1ccc(OC)cc1` [Compound 84], in test [7], the EC50 is below 5000 nM.

Take `CN[C@@H](C)C(=O)N[C@@H](CCc1ccccc1)C(=O)N1CCC[C@H]1CN(CCc1ccccc1)C(=O)[C@H](N)Cc1ccccc1` [Compound 89]: the EC50 in test [7] is below 5000 nM.
